Reference: ChEMBL document CHEMBL4033755, “19F-NMR-Based Dual-Site Reporter Assay for the Discovery and Distinction of Catalytic and Allosteric Kinase Inhibitors” (ACS Med Chem Lett, 2017)
Active and inactive are the calls of the source. No cut-off for these calls is given here.

Tests used:
[1] = biological target: T1, Tyrosine-protein kinase ABL1 (Homo sapiens, UniProt P00519); assay: Binding affinity to allosteric site of N-terminal His6-tagged ABL (83 to 534 residues) (unknown origin) expressed in Escherichia coli co-expressing Protein Tyrosine Phosphatase 1b at 25 uM in presence of ABL001
[2] = biological target: T1, Tyrosine-protein kinase ABL1; assay: Binding affinity to catalytic site of N-terminal His6-tagged ABL (83 to 534 residues) (unknown origin) expressed in Escherichia coli co-expressing Protein Tyrosine Phosphatase 1b by NMR spectroscopy based dual-site competition assay
[3] = biological target: T1, Tyrosine-protein kinase ABL1; assay: Displacement of ALLO-1 from allosteric site of N-terminal His6-tagged ABL (83 to 534 residues) (unknown origin) expressed in Escherichia coli co-expressing Protein Tyrosine Phosphatase 1b at 25 to 250 uM by 19F NMR spectroscopy based dual-site competition assay
[4] = biological target: T1, Tyrosine-protein kinase ABL1; assay: Displacement of CAT-1 from catalytic site of N-terminal His6-tagged ABL (83 to 534 residues) (unknown origin) expressed in Escherichia coli co-expressing Protein Tyrosine Phosphatase 1b at 25 and 50 uM by 19F NMR spectroscopy based dual-site competition assay
[5] = biological target: T1, Tyrosine-protein kinase ABL1; assay: Displacement of CAT-1 from catalytic site of N-terminal His6-tagged ABL (83 to 534 residues) (unknown origin) expressed in Escherichia coli co-expressing Protein Tyrosine Phosphatase 1b at 25 to 250 uM by 19F NMR spectroscopy based dual-site competition assay

T1 sequence (P00519 whole entry, the tested form may be a part): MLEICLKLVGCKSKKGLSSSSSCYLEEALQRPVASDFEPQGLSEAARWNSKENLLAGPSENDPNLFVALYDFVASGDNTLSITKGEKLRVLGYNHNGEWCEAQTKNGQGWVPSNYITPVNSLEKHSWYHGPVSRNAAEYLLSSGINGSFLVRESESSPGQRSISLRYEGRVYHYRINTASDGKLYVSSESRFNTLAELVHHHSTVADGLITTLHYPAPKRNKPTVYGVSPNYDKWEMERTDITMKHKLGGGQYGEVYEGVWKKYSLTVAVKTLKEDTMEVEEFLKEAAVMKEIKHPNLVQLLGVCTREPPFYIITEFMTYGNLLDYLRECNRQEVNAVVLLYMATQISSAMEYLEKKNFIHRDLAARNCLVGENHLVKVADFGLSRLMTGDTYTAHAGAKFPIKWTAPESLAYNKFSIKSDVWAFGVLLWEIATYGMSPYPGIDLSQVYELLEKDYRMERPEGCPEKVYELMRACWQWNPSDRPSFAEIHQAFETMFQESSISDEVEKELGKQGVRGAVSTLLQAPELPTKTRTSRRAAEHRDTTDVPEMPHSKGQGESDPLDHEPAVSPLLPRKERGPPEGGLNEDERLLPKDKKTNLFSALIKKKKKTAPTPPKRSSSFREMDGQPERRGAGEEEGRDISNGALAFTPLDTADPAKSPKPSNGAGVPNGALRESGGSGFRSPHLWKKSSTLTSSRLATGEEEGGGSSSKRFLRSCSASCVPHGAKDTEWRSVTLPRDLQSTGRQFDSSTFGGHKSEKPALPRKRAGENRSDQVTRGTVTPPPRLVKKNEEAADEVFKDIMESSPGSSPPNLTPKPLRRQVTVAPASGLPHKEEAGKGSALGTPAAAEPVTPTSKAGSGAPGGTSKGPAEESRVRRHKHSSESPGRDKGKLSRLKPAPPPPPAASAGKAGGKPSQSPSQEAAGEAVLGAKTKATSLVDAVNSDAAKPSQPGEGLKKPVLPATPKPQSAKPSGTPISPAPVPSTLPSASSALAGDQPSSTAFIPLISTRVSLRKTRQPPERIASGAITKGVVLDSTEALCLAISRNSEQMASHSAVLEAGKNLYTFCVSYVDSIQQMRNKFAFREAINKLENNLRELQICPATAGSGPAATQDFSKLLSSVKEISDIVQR

Row | SMILES | Activity [1] | Kd [2] | inhibition [3] | inhibition [4] | inhibition [5]
1 | NC(=O)C1CCN(c2ccc(C(F)(F)F)cn2)CC1 | Active | 43 µM | – | – | –
2 | FC(F)(F)Oc1ccc(Nc2ccncn2)cc1 | – | – | Active | inactive | Active
